This assay has as its target T1, GST-RagD (Homo sapiens, UniProt Q9NQL2).
T1 construct: gene RRAGD; GST fusion from pET24d(+) in E. coli Rosetta (DE3), glutathione Sepharose; RagD alone without RagA/B; GST tag kept
Put plainly: UV crosslinking of alpha-32P-GTP, SDS-PAGE, autoradiography. As to conditions: labelled compound; 1 nM alpha-32P-GTP; 31.25 nM to 2 uM protein; 2 mM MgCl2; 50 mM HEPES pH 7.5; 100 mM potassium acetate; 4 h at 4 C. In kind it is binding.

We go through 1 molecule from publication PMC10185561, “RagD auto-activating mutations impair MiT/TFE activity in kidney tubulopathy and cardiomyopathy syndrome” (Nature Communications, 2023).

T1 sequence (Q9NQL2 whole entry, the tested form may be a part): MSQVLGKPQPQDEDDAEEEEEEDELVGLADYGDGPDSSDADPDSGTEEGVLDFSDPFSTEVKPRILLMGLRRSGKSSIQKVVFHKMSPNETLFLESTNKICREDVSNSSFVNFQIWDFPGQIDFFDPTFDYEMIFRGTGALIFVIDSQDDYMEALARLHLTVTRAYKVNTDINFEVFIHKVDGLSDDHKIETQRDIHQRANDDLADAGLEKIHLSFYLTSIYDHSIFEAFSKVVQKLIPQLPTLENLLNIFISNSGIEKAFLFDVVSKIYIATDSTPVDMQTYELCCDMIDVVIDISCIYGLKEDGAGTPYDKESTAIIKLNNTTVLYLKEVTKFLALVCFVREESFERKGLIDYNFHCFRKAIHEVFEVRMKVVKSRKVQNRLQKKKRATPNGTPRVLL

`Nc1nc2c(ncn2[C@@H]2O[C@H](COP(=O)(O)OP(=O)(O)OP(=O)(O)O)[C@@H](O)[C@H]2O)c(=O)[nH]1` [GTP]: the “UV crosslinking of alpha-32P-GTP, SDS-PAGE, autoradiography” value is given as “WT RagD bound GTP in a concentration-dependent manner”.
